Measured values as given in US9272054B2, “Agents for the molecular imaging of serine-protease in human pathologies” (Institut National de la Sante et de la Recherche Medicale …, priority 2010, dated 2016).
Square brackets hold non-standard residues; d marks the D form. Peptide text beside a SMILES is read from it. * marks the point of attachment. DOTA = O=C(O)CN1CCN(CC(=O)O)CCN(CC(=O)*)CCN(CC(=O)O)CC1; DTPA = O=C(O)CN(CCN(CC(=O)O)CC(=O)O)CCN(CC(=O)O)CC(=O)*; CH2Cl = ClC*

Tests used:
[1] = system: localized lesion / thrombus; details: rat
Description: we have used several experimental models of endovascular thrombus formation in rats, which have been already developed for molecular molecular imaging of platelet activation and fibrin formation, including aneurysm of the abdominal aorta {Sarda-Mantel, 2006}, endocarditic vegetations {Rouzet, 2008}. Aneurysm of the aorta was induced by matrix decellularized xenograft in rats {Allaire, 1996}, and endocarditis by left or right ventricle catheterization followed by provoked bacteraemia {Rouzet, 2008} as previously described. These thrombus models were completed by a model of stroke, provoked by cerebral autologous thrombus emboli in rats (reference). […]
Relevant tissues (heart, abdominal aorta, or brain according to the model) were carefully dissected, frozen and cut into transverse sections of 20 μm thickness, which were exposed in a digital radioimager (Instant Imager, Packard, Meriden, USA) for 12 hours. The activity normalized to the region of interest area (mean counts/min/mm^2 corrected for background activity) was determined on autoradiograms. Quantification was performed by calculating the ratio between the activity of the relevant tissue and the activity of a region of interest drawn on either normal myocardium remote from the vegetation in the endocarditis model, supra-renal aorta sample in the AAA model, or the contralateral brain hemisphere in the stroke model. […]

[2] = molecular target: T1, plasmin from human plasma (Homo sapiens, UniProt P00747); assay: Determination of plasmin activity with fluorescent substrate Suc-Ala-Phe-Lys-AMC; format: biochemical; details: for % of plasmin activity (mean): 10 nM plasmin, 15 min pre-incubation at room temperature, n=4
T1 construct: plasmin from human plasma (calbiochem); purchased calbiochem; host or cells: human plasma
T1 sequence (P00747 581-810 limits assumed): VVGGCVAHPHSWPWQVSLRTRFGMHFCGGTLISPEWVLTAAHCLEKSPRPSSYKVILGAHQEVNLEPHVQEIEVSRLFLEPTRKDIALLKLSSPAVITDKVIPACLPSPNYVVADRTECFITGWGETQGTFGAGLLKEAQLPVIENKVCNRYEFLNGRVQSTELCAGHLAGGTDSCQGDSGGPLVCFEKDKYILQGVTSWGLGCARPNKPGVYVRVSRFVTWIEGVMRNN
T1 sequence (P00747 97-580 partner limits assumed): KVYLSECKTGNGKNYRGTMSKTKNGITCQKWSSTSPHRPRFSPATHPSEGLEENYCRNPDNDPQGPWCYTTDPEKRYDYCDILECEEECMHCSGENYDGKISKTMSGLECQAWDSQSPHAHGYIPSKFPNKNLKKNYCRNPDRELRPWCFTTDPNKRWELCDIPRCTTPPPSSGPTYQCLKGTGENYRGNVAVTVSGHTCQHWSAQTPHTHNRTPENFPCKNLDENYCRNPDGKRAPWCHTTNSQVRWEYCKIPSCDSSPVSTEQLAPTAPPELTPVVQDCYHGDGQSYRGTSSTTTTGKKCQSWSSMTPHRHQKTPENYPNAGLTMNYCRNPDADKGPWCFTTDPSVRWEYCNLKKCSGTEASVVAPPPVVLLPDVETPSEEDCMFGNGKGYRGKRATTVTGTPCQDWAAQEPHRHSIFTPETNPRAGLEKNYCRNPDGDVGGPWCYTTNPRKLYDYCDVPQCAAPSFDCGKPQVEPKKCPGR
Protocol: Plasmin with or without inhibitors was incubated at room temperature for 15 min. The fluorescent substrate (40 μM) was added just before reading (λ excitation 390 nm, λ emission 460 nm)
10 nM of plasmin from human plasma (calbiochem) was diluted in Tris-HCl buffer pH 7.4 50 mM, NaCl 100 mM and Tween-20 0.01%. The samples were then incubated or not with the different inhibitors (see below) for 15 minutes at room temperature. Then, the fluorescent substrate (Suc-Ala-Phe-Lys-AMC, […]) was added just before reading (λ excitation 390 nm, λ emission 460 nm) on the Fluoroskan Ascent plate reader (Thermo Fisher). The fluorescence intensity was evaluated every 10 minutes for 2 hours at 37° C.—The integration time for each measure was 20 ms.
Each inhibitor was tested in a range of concentrations from 5 nM up to 1000 nM. All the inhibitors were tested in duplicates for each concentration and 4 independent experiments were performed.
Results are presented as % of active plasmin. The differences between the concentrations of each inhibitor were evaluated by paired t-test using StatView software. Statistical significance was accepted when p<0.05.

[3] = molecular target: plasmin (Homo sapiens, UniProt P00747); details: competitive inhibitor of plasmin; Chi, 1989; cited from earlier work
Sequence of plasmin (P00747 581-810 limits assumed, species assumed): as the sequence (P00747 581-810 limits assumed) above
Sequence of plasmin (P00747 97-580 partner limits assumed, species assumed): as the sequence (P00747 97-580 partner limits assumed) above

| Compound | in vivo uptake by bone marrow [1] | % of plasmin activity (mean) ([2]; inhibitor 5 nM) | % of plasmin activity (mean) ([2]; inhibitor 10 nM) | % of plasmin activity (mean) ([2]; inhibitor 50 nM) | % of plasmin activity (mean) ([2]; inhibitor 100 nM) | % of plasmin activity (mean) ([2]; inhibitor 500 nM) | % of plasmin activity (mean) ([2]; inhibitor 1000 nM) | Ki [3] | inhibitory effect on plasmin activity (in words) ([2]; range 5 nM to 1000 nM) |
| --- | --- | --- | --- | --- | --- | --- | --- | --- | --- |
| CC(C)[C@@H](NC(=O)CNC(=O)CN(CCN(CCN(CC(=O)O)CC(=O)O)CC(=O)O)CC(=O)O)C(=O)N[C@@H](Cc1ccccc1)C(=O)N[C@@H](CCCCN)C(=O)CCl [99mTc-DTPA-G-dVFKcmk, metal not drawn] ({DTPA}-G[dV]FK-CH2Cl) | high | – | – | – | – | – | – | – | – |
| CC(C)[C@@H](NC(=O)CNC(=O)CN1CCN(CC(=O)O)CCN(CC(=O)O)CCN(CC(=O)O)CC1)C(=O)N[C@@H](Cc1ccccc1)C(=O)N[C@@H](CCCCN)C(=O)CCl [PL 701, DOTA-G-dV-F—K-cmk] ({DOTA}-G[dV]FK-CH2Cl) | – | 83.0% | 79.1% | 68.7% | 54.6% | 34.1% | 12.8% | – | – |
| CC(C)[C@@H](NC(=O)CNC(=O)CN1CCN(CC(=O)O)CCN(CC(=O)O)CCN(CC(=O)O)CC1)C(=O)N[C@@H](Cc1ccccc1)C(=O)N[C@@H](C)C(=O)CCl [PL 703, DOTA-G-dV-F-A-cmk] ({DOTA}-G[dV]FA-CH2Cl) | – | 94.9% | 93.6% | 86.1% | 84.1% | 58.4% | 48.4% | – | – |
| CC(C)[C@@H](NC(=O)CNC(=O)CN(CCN(CCN(CC(=O)O)CC(=O)O)CC(=O)O)CC(=O)O)C(=O)N[C@@H](Cc1ccccc1)C(=O)N[C@@H](CCCCN)C(=O)CCl [PL 704, DTPA-G-dV-F—K-cmk] ({DTPA}-G[dV]FK-CH2Cl) | – | 56.3% | 46.2% | 27.4% | 16.6% | 4.0% | 1.1% | – | – |
| CC(=O)N[C@@H](CC(C)C)C(=O)N[C@@H](CC(C)C)C(=O)N[C@H](C=O)CCCNC(=N)N [leupeptin, Ac-Leu-Leu-Arg-H] | – | – | – | – | – | – | – | ~100 nM | – |
| D-Val-Phe-Lys-COCH2Cl [VFK, reference compound] | – | 77.1% | 68.3% | 39.1% | 11.9% | 8.0% | 7.8% | – | – |
| G-dV-F-A-cmk [PL 702] | – | 102.3% | 123.5% | 122.9% | 113.3% | 112.1% | 107.3% | – | totally abolished |
| G-dV-F—K-cmk [PL 700] | – | 89.8% | 95.6% | 65.7% | 43.1% | 15.8% | 5.8% | – | – |
